From patent publication US11207325B2, “Triazolopyrimidine compounds and uses thereof” (Novartis AG, priority 2014, dated 2021)

Tested on: H3K27 methylation in G401 cell
Assay: ELISA (H3K27 methylation) assay
Format: cell-based
Details: Homo sapiens, G-401; ELISA Qualified assay (H3K27 methylation); read-out: (c) IC50 (μM), ELISA Qualified
Source text: ELISA (H3K27 Methylation) Assay

SMILES	IC50
Fc1ccc2c(c1CNc1ncc(-c3ccncc3Cl)c3nncn13)CCO2 [Example 162, 8-(3-chloropyridin-4-yl)-N-((5-fluoro-2,3-dihydrobenzofuran-4-yl)methyl)-[1,2,4]triazolo[4,3-c]pyrimidin-5-amine]	0.0273 µM
Cc1ccc(-c2cnc(NCc3c(F)ccc4c3CCO4)n3cnnc23)c(C)n1 [Example 167, 8-(2,6-dimethylpyridin-3-yl)-N-((5-fluoro-2,3-dihydrobenzofuran-4-yl)methyl)-[1,2,4]triazolo[4,3-c]pyrimidin-5-amine]	0.0393 µM
Fc1ccc2c(c1CNc1ncc(-c3cccnc3C(F)F)c3nncn13)CCO2 [Example 168, 8-(2-(difluoromethyl)pyridin-3-yl)-N-((5-fluoro-2,3-dihydrobenzofuran-4-yl)methyl)-[1,2,4]triazolo[4,3-c]pyrimidin-5-amine]	0.002 µM
Cn1nccc1-c1cnc(NCc2c(F)ccc3c2CCO3)n2cnnc12 [Example 169, N-((5-fluoro-2,3-dihydrobenzofuran-4-yl)methyl)-8-(1-methyl-1H-pyrazol-5-yl)-[1,2,4]triazolo[4,3-c]pyrimidin-5-amine]	0.0029 µM
Cn1cc(-c2cnc(NCc3c(F)ccc4c3CCO4)n3cnnc23)c(C(F)(F)F)n1 [Example 170, N-((5-fluoro-2,3-dihydrobenzofuran-4-yl)methyl)-8-(1-methyl-3-(trifluoromethyl)-1H-pyrazol-4-yl)-[1,2,4]triazolo[4,3-c]pyrimidin-5-amine]	0.0232 µM
CC(=O)NCc1ccc(-c2cnc(NCc3c(F)ccc4c3CCO4)n3cnnc23)cn1 [Example 171, N-((5-(5-(((5-fluoro-2,3-dihydrobenzofuran-4-yl)methyl)amino)-[1,2,4]triazolo[4,3-c]pyrimidin-8-yl)pyridin-2-yl)methyl)acetamide]	0.0265 µM
Cc1c(-c2cnc(NCc3c(F)ccc4c3CCO4)n3cnnc23)cnn1C [Example 172, 8-(1,5-dimethyl-1H-pyrazol-4-yl)-N-((5-fluoro-2,3-dihydrobenzofuran-4-yl)methyl)-[1,2,4]triazolo[4,3-c]pyrimidin-5-amine]	0.0044 µM
Cc1cc(C2CC2)ncc1-c1cnc(NCc2c(F)ccc3c2CCO3)n2cnnc12 [Example 173, 8-(6-cyclopropyl-4-methylpyridin-3-yl)-N-((5-fluoro-2,3-dihydrobenzofuran-4-yl)methyl)-[1,2,4]triazolo[4,3-c]pyrimidin-5-amine]	0.0152 µM
COc1ncc(-c2cnc(NCc3c(F)ccc4c3CCO4)n3cnnc23)cn1 [Example 174, N-((5-fluoro-2,3-dihydrobenzofuran-4-yl)methyl)-8-(2-methoxypyrimidin-5-yl)-[1,2,4]triazolo[4,3-c]pyrimidin-5-amine]	0.0042 µM
COc1ncc(-c2cnc(NCc3c(F)ccc4c3CCO4)n3cnnc23)c(C)n1 [Example 175, N-((5-fluoro-2,3-dihydrobenzofuran-4-yl)methyl)-8-(2-methoxy-4-methylpyrimidin-5-yl)-[1,2,4]triazolo[4,3-c]pyrimidin-5-amine]	0.0034 µM
Cc1ncncc1-c1cnc(NCc2c(F)ccc3c2CCO3)n2cnnc12 [Example 176, N-((5-fluoro-2,3-dihydrobenzofuran-4-yl)methyl)-8-(4-methylpyrimidin-5-yl)-[1,2,4]triazolo[4,3-c]pyrimidin-5-amine]	0.0046 µM
Cc1nccc(-c2cnc(NCc3c(F)ccc4c3CCO4)n3cnnc23)c1C [Example 177, 8-(2,3-dimethylpyridin-4-yl)-N-((5-fluoro-2,3-dihydrobenzofuran-4-yl)methyl)-[1,2,4]triazolo[4,3-c]pyrimidin-5-amine]	0.0044 µM
Cc1cc(C#N)ccc1-c1cnc(NCc2c(F)ccc3c2CCO3)n2cnnc12 [Example 178, 4-(5-(((5-fluoro-2,3-dihydrobenzofuran-4-yl)methyl)amino)-[1,2,4]triazolo[4,3-c]pyrimidin-8-yl)-3-methylbenzonitrile]	0.0114 µM
Cc1nn(C2CC2)c(C)c1-c1cnc(NCc2c(F)ccc3c2CCO3)n2cnnc12 [Example 179, 8-(1-cyclopropyl-3,5-dimethyl-1H-pyrazol-4-yl)-N-((5-fluoro-2,3-dihydrobenzofuran-4-yl)methyl)-[1,2,4]triazolo[4,3-c]pyrimidin-5-amine]	0.0091 µM
Cc1c(-c2cnc(NCc3c(F)ccc4c3CCO4)n3cnnc23)ccnc1F [Example 180, N-((5-fluoro-2,3-dihydrobenzofuran-4-yl)methyl)-8-(2-fluoro-3-methylpyridin-4-yl)-[1,2,4]triazolo[4,3-c]pyrimidin-5-amine]	0.0124 µM
Cc1c(-c2cnc(NCc3c(F)ccc4c3CCO4)n3cnnc23)ccnc1C(F)F [Example 181, 8-(2-(difluoromethyl)-3-methylpyridin-4-yl)-N-((5-fluoro-2,3-dihydrobenzofuran-4-yl)methyl)-[1,2,4]triazolo[4,3-c]pyrimidin-5-amine]	0.0208 µM
Cc1c(-c2cnc(NCc3c(F)ccc4c3CCO4)n3cnnc23)ccnc1CF [Example 182, N-((5-fluoro-2,3-dihydrobenzofuran-4-yl)methyl)-8-(2-(fluoromethyl)-3-methylpyridin-4-yl)-[1,2,4]triazolo[4,3-c]pyrimidin-5-amine]	0.0025 µM

SMILES	IC50
Cc1cnc(F)cc1-c1cnc(NCc2c(F)ccc3c2CCO3)n2cnnc12 [Example 183, N-((5-fluoro-2,3-dihydrobenzofuran-4-yl)methyl)-8-(2-fluoro-5-methylpyridin-4-yl)-[1,2,4]triazolo[4,3-c]pyrimidin-5-amine]	0.0106 µM
Cc1cnc(C(F)(F)F)cc1-c1cnc(NCc2c(F)ccc3c2CCO3)n2cnnc12 [Example 184, N-((5-fluoro-2,3-dihydrobenzofuran-4-yl)methyl)-8-(5-methyl-2-(trifluoromethyl)pyridin-4-yl)-[1,2,4]triazolo[4,3-c]pyrimidin-5-amine]	0.0777 µM
Fc1ccc2c(c1CNc1ncc(-c3ccnc(C(F)(F)F)c3)c3nncn13)CCO2 [Example 185, N-((5-fluoro-2,3-dihydrobenzofuran-4-yl)methyl)-8-(2-(trifluoromethyl)pyridin-4-yl)-[1,2,4]triazolo[4,3-c]pyrimidin-5-amine]	0.0468 µM
Cc1nn(C[C@@H](C)O)c(C)c1-c1cnc(NCc2c(F)ccc3c2CCO3)n2cnnc12 [Example 186, (2R)-1-(4-(5-(((5-fluoro-2,3-dihydrobenzofuran-4-yl)methyl)amino)-[1,2,4]triazolo[4,3-c]pyrimidin-8-yl)-3,5-dimethyl-1H-pyrazol-1-yl)propan-2-ol]	0.0068 µM
Cc1nn(C[C@H](C)O)c(C)c1-c1cnc(NCc2c(F)ccc3c2CCO3)n2cnnc12 [Example 187, (2S)-1-(4-(5-(((5-fluoro-2,3-dihydrobenzofuran-4-yl)methyl)amino)-[1,2,4]triazolo[4,3-c]pyrimidin-8-yl)-3,5-dimethyl-1H-pyrazol-1-yl)propan-2-ol]	0.012 µM
Cc1c(-c2cnc(NCc3c(F)ccc4c3CCO4)n3cnnc23)cnn1C(C)C [Example 188, N-((5-fluoro-2,3-dihydrobenzofuran-4-yl)methyl)-8-(1-isopropyl-5-methyl-1H-pyrazol-4-yl)-[1,2,4]triazolo[4,3-c]pyrimidin-5-amine]	0.0036 µM
Cc1c(-c2cnc(NCc3c(F)ccc4c3CCO4)n3cnnc23)cnn1CCO [Example 189, 2-(4-(5-(((5-fluoro-2,3-dihydrobenzofuran-4-yl)methyl)amino)-[1,2,4]triazolo[4,3-c]pyrimidin-8-yl)-5-methyl-1H-pyrazol-1-yl)ethanol]	0.0052 µM
Cc1nn(CCO)cc1-c1cnc(NCc2c(F)ccc3c2CCO3)n2cnnc12 [Example 190, 2-(4-(5-(((5-fluoro-2,3-dihydrobenzofuran-4-yl)methyl)amino)-[1,2,4]triazolo[4,3-c]pyrimidin-8-yl)-3-methyl-1H-pyrazol-1-yl)ethanol]	0.0025 µM
Fc1ccc2c(c1CNc1ncc(-c3cncnc3C(F)F)c3nncn13)CCO2 [Example 191, 8-(4-(difluoromethyl)pyrimidin-5-yl)-N-((5-fluoro-2,3-dihydrobenzofuran-4-yl)methyl)-[1,2,4]triazolo[4,3-c]pyrimidin-5-amine]	0.0344 µM
Fc1ccc2c(c1CNc1ncc(-c3ccnn3C3CC3)c3nncn13)CCO2 [Example 192, 8-(1-cyclopropyl-1H-pyrazol-5-yl)-N-((5-fluoro-2,3-dihydrobenzofuran-4-yl)methyl)-[1,2,4]triazolo[4,3-c]pyrimidin-5-amine]	0.0104 µM
FCc1ncccc1-c1cnc(NCc2c(F)ccc3c2CCO3)n2cnnc12 [Example 193, N-((5-fluoro-2,3-dihydrobenzofuran-4-yl)methyl)-8-(2-(fluoromethyl)pyridin-3-yl)-[1,2,4]triazolo[4,3-c]pyrimidin-5-amine]	0.0054 µM
Cc1cc(-c2cnc(NCc3c(F)ccc4c3CCO4)n3cnnc23)c(C)cn1 [Example 194, 8-(2,5-dimethylpyridin-4-yl)-N-((5-fluoro-2,3-dihydrobenzofuran-4-yl)methyl)-[1,2,4]triazolo[4,3-c]pyrimidin-5-amine]	0.0241 µM
Cc1nn(C)cc1-c1cnc(NCc2c(F)ccc3c2CCO3)n2cnnc12 [Example 195, 8-(1,3-dimethyl-1H-pyrazol-4-yl)-N-((5-fluoro-2,3-dihydrobenzofuran-4-yl)methyl)-[1,2,4]triazolo[4,3-c]pyrimidin-5-amine]	0.0024 µM
CCOc1cc(C)c(-c2cnc(NCc3c(F)ccc4c3CCO4)n3cnnc23)cn1 [Example 196, 8-(6-ethoxy-4-methylpyridin-3-yl)-N-((5-fluoro-2,3-dihydrobenzofuran-4-yl)methyl)-[1,2,4]triazolo[4,3-c]pyrimidin-5-amine]	0.0263 µM
Cc1cc(OC(F)F)ncc1-c1cnc(NCc2c(F)ccc3c2CCO3)n2cnnc12 [Example 197, 8-(6-(difluoromethoxy)-4-methylpyridin-3-yl)-N-((5-fluoro-2,3-dihydrobenzofuran-4-yl)methyl)-[1,2,4]triazolo[4,3-c]pyrimidin-5-amine]	0.0149 µM
Cc1cnc(C(F)F)cc1-c1cnc(NCc2c(F)ccc3c2CCO3)n2cnnc12 [Example 198, 8-(2-(difluoromethyl)-5-methylpyridin-4-yl)-N-((5-fluoro-2,3-dihydrobenzofuran-4-yl)methyl)-[1,2,4]triazolo[4,3-c]pyrimidin-5-amine]	0.0078 µM
